From patent US9290516B2, “Benzobis(thiadiazole) derivative and organic electronics device comprising same” (Ube Industries, Ltd., priority 2012, dated 2016)
Where two headings read alike, the source gives them in different places.

What was measured:
Assay type in all cases: physicochemical
[1] = Solubility Experiment 3 (chlorobenzene, visual observation); settings: organic solvent or mixture, thermodynamic from solid, 1 mg in 1 mL chlorobenzene
Method: 1 mg of each compound shown in Table 1 [BBT-(1)-BBT-(14)] was added to 1 mL of a solvent (chlorobenzene) and the mixture was heated to 100° C. or 140° C., and the solubility was evaluated by visual observation.

[2] = Solubility Experiment 1 (1,2-dichlorobenzene); settings: 5 mg in 1.6 g 1,2-dichlorobenzene, heated to 150° C.
Method: Into a 20-ml glass vessel equipped with a stirring apparatus were placed 5 mg of BBT-(1), and 1.6 g of 1,2-dichlorobenzene.
(§1) On the other hand, using BBT-(11): (FPTBBT) synthesized in Reference Example 1, instead of BBT-(1), the preparation of a solution of BBT-(11) in 1,2-dichlorobenzene was attempted in accordance with [Solubility Experiment 1]. […] The suspension was filtered through a 0.2-μm filter, and then dropped onto a silicon wafer as described above. And then, without any treatment, the solvent component was volatilized, but the formation of a thin film of BBT-(11) was not confirmed. Meanwhile, using BBT-(11), instead of BBT-(1), the preparation of a solution of BBT-(11) in mesitylene was attempted in accordance with [Solubility Experiment 2]. […] The suspension was filtered through a 0.2-μm filter, and then dropped onto a silicon wafer as described above. And then, without any treatment, the solvent component was volatilized, but the formation of a thin film of BBT-(11) was not confirmed.

[3] = Solubility Experiment 2 (mesitylene); settings: 5 mg in 1.6 g mesitylene, heated to 100° C.
Method: Into a 20-ml glass vessel equipped with a stirring apparatus were placed 5 mg of BBT-(1), and 1.6 g of mesitylene.
as §1

[4] = heated to 100° C., read-out: Solubility chlorobenzene (° C.) 100
[5] = heated to 140° C., read-out: Solubility chlorobenzene (° C.) 140

SMILES	solubility [1, 4] [µg/mL]	solubility [1, 5] [µg/mL]	Solubility in 1,2-dichlorobenzene [2]	Solubility in mesitylene [3]
FC(F)(F)Oc1ccccc1-c1ccc(-c2c3c(c(-c4ccc(-c5ccccc5OC(F)(F)F)s4)c4nsnc24)N=S=N3)s1 [BBT-(3)]	> 1000	> 1000	–	–
FC(F)(F)Oc1cccc(-c2ccc(-c3c4c(c(-c5ccc(-c6cccc(OC(F)(F)F)c6)s5)c5nsnc35)N=S=N4)s2)c1 [BBT-(2)]	> 1000	> 1000	–	–
CCCCCCCCCCC(F)(F)c1ccc(-c2ccc(-c3c4c(c(-c5ccc(-c6ccc(C(F)(F)CCCCCCCCCC)cc6)s5)c5nsnc35)N=S=N4)s2)cc1 [BBT-(5)]	> 1000	> 1000	–	–
CCCCCCCCCCOC(F)(F)c1ccc(-c2ccc(-c3c4c(c(-c5ccc(-c6ccc(C(F)(F)OCCCCCCCCCC)cc6)s5)c5nsnc35)N=S=N4)s2)cc1 [BBT-(10)]	> 1000	> 1000	–	–
CCCCCCCCCc1ccc(-c2ccc(-c3c4c(c(-c5ccc(-c6ccc(CCCCCCCCC)cc6)s5)c5nsnc35)N=S=N4)s2)cc1 [BBT-(14), reference compound]	> 1000	> 1000	–	–
CCCCCCCCCC(F)(F)Oc1ccc(-c2ccc(-c3c4c(c(-c5ccc(-c6ccc(OC(F)(F)CCCCCCCCC)cc6)s5)c5nsnc35)N=S=N4)s2)cc1 [BBT-(7)]	> 1000	> 1000	–	–
CC(C)CC(F)c1ccc(-c2ccc(-c3c4c(c(-c5ccc(-c6ccc(C(F)CC(C)C)cc6)s5)c5nsnc35)N=S=N4)s2)cc1 (stereo not drawn) [BBT-(9)]	< 1000	> 1000	–	–
COc1ccc(-c2ccc(-c3c4c(c(-c5ccc(-c6ccc(OC)cc6)s5)c5nsnc35)N=S=N4)s2)cc1 [BBT-(13), reference compound]	< 1000	> 1000	–	–

Other lines, results leading:

solubility [1, 4] [µg/mL]	solubility [1, 5] [µg/mL]	Solubility in 1,2-dichlorobenzene [2]	Solubility in mesitylene [3]	SMILES
< 1000	< 1000	not completely dissolved	not completely dissolved	FC(F)(F)c1ccc(-c2ccc(-c3c4c(c(-c5ccc(-c6ccc(C(F)(F)F)cc6)s5)c5nsnc35)N=S=N4)s2)cc1 [BBT-(11), reference compound]
> 1000	> 1000	completely dissolved	completely dissolved	FC(F)(F)Oc1ccc(-c2ccc(-c3c4c(c(-c5ccc(-c6ccc(OC(F)(F)F)cc6)s5)c5nsnc35)N=S=N4)s2)cc1 [BBT-(1)]
< 1000	> 1000	–	–	CC(F)(F)c1ccc(-c2ccc(-c3c4c(c(-c5ccc(-c6ccc(C(C)(F)F)cc6)s5)c5nsnc35)N=S=N4)s2)cc1 [BBT-(4)]
< 1000	> 1000	–	–	CC(F)(F)Oc1ccc(-c2ccc(-c3c4c(c(-c5ccc(-c6ccc(OC(C)(F)F)cc6)s5)c5nsnc35)N=S=N4)s2)cc1 [BBT-(6)]
> 1000	> 1000	–	–	Cc1ccc(-c2ccc(-c3c4c(c(-c5ccc(-c6ccc(C)cc6)s5)c5nsnc35)N=S=N4)s2)cc1 [BBT-(12), reference compound]
